Entries after “also recorded” stand apart in the source; their conditions may differ.
How the values were obtained:
[1] = test system: murine model of schizophrenia; test: Prepulse inhibition (PPI) of the startle reflex in the PCP mouse model; assay type: in vivo, mice
Protocol: In this experimental model, a weak stimulus (74-90 dB tone) inhibited the subsequent response to a strong stimulus (120 dB tone). Reduced prepulse inhibition of the startle reflex (PPI) was taken as an index of the positive symptoms of schizophrenia (Josselyn and Vaccarino, 1998).
PPI was assessed similarly to the method described by Varty et al. In the employed model, mice were placed in a startle chamber and allowed to acclimate for 5 min. A loudspeaker produced a 65 dB background white noise or the various acoustic pre-pulse stimuli (dB): 74, 78, 82, 86, and 90 (20 ms). A 120 dB (40 ms) stimulus was given first to induce a response to startle. The response of the mouse was transduced and stored by a computer. Each test session lasted for 11 min and consisted of 5 presentations of each of the trial types presented in random order and separated by 15 second intervals. The amount of prepulse inhibition was calculated as % PPI=[1−(startle response for prepulse+pulse)/(startle response for pulse alone)]×100.
The % PPI indicates of level of disruption of the sensorimotor gating system in schizophrenia but also serves as an indicator of memory function. The % PPI after administration of PCP and treatment of BCP in the PPI test also serve as an index of memory function, further supporting the function of the sensorimotor system.

[2] = test system: murine model of schizophrenia; test: Elevated Plus Maze test in the PCP mouse model; assay type: in vivo, mice
Protocol: Anxiety as measured by the paucity of time spent on the two, anxiety-provoking, open arms (as opposed to the two enclosed arms) of an “Elevated Plus Maze” was used as a parameter of negative symptoms of schizophrenia (Josselyn and Vaccarino, 1998). The plus maze was elevated 50 cm above the table top. Behavior of each mouse was recorded for 5 min by a video camera and scored using the “EthoVision” software (Noldus Information Technology, Wageningen, The Netherlands), measuring the number of entries as well as the amount of time spent in each arm, open or closed. Increased time spent in the closed arms indicated increased anxiety. Increased time spent in the opened arms indicated anxiolytic behavior (reduced stress).

[3] = test system: murine model of schizophrenia; test: PhenoTyper cage behaviour in the PCP mouse model; assay type: in vivo, mice; details: BCP 5 mg/kg PND 43-61
[4] = test system: murine model of schizophrenia; test: Forced-swimming test in the PCP mouse model; assay type: in vivo, mice; details: PND 83; postnatal PCP 5 mg/kg; oral BCP 10 mg/kg twice a week, PND 43-62
Protocol: (§1) BCP was diluted in canola oil. BCP (10 mg/kg diluted in canola oil) was administered to adolescent mice (PND 43-62) by gavage twice a week (on Sunday and Wednesday) for 3 weeks, a total of 6 gavages. Control group and PCP-induced group received by gavage the oil vehicle.
Training was conducted for 6 min a day before the test. Each mouse was placed into a transparent glass cylinder filled with fresh water at 25° C. On the test day, the total duration/frequency of immobility and climbing was counted every 2 minutes for 6 minutes. An increased immobility is an index of learning and habituation, therefore a positive behavioral adaptation with a stressful condition.

[5] = test system: murine model of schizophrenia; test: Social interaction test in a novel environment, PCP mouse model; assay type: in vivo, mice; details: PND 88-89; postnatal PCP 5 mg/kg; oral BCP 10 mg/kg twice a week, PND 43-62
Protocol: as §1
Each mouse was placed in a novel cage together with a nonaggressive intruder mouse of the same species, same sex and a similar age. The interaction between the two mice was recorded for 10 minutes with EthoVision software (Noldus). Social interaction was defined by contact between the mice (tracking nose point). Reduced duration of contact behavior indicates on impairment in social interaction.

CYP2D6 = CYP2D6 (Homo sapiens, UniProt P10635); test: CYP450 enzymatic metabolism in human liver microsomes
Protocol: CYP450 dependent activities were determined using a known substrate. […] A known inhibitor, such as quinidine, tested at a single concentration 3.00 μM was included as positive control. Incubation mixture containing human liver microsomes (0.1 mg/mL), substrate (5 μM) and standard inhibitor or test compound were warmed at 37 C for 10 minutes. Reactions were initiated by addition of the NADPH (1 mM) and the mixture was incubated for 20 minutes at 37° C. water bath. The organic solvent in the reaction mixture was DMSO. After incubation, ice cold acetonitrile was added to terminate the reaction. Generation of metabolite from the substrate reactions was determined by LC-MS/MS and assessed based on peak area ratios of analyte/IS. Mean was used to calculate the extent of inhibition (expressed as % of control activity).

[6] = air exposed, after 5 weeks; cited from earlier work
[7] = test system: murine model of schizophrenia; test: Open-field test (ambulation, rearing, grooming) in the PCP mouse model
Protocol: Mice were assessed for hyperactivity behavior on postnatal day 16 (FIG. 2). Mice were placed in the center of a transparent glass cube cage 30×40 X31 cm divided into squares of 7.5×7.5 cm. The number of squares and rearing activity were counted for 8 min.
Mice were assessed for hyperactivity behavior on postnatal day 64-66. Mice were placed in the center of a transparent glass cube cage 30×40 X31 cm divided into squares of 7.5×7.5 cm. The number of squares and rearing activity were counted for 8 min.

[8] = PND 68, no PCP, BCP 5 mg/kg PND 43-61
[9] = PND 68, postnatal PCP, BCP 5 mg/kg PND 43-61
[10] = PND 106, postnatal PCP, BCP 5 mg/kg PND 43-61
[11] = age 8 weeks, postnatal BCP 10 mg/kg 1 h after PCP
[12] = age 13 weeks, postnatal BCP 10 mg/kg 1 h after PCP
[13] = PND 91, females and males, postnatal PCP
[14] = PND 17, BCP 10 mg/kg 1 h after PCP, ethanol-based vehicle
[15] = PND 35-37, postnatal BCP 10 mg/kg 1 h after PCP

CYP2D6, sequence (P10635 whole entry): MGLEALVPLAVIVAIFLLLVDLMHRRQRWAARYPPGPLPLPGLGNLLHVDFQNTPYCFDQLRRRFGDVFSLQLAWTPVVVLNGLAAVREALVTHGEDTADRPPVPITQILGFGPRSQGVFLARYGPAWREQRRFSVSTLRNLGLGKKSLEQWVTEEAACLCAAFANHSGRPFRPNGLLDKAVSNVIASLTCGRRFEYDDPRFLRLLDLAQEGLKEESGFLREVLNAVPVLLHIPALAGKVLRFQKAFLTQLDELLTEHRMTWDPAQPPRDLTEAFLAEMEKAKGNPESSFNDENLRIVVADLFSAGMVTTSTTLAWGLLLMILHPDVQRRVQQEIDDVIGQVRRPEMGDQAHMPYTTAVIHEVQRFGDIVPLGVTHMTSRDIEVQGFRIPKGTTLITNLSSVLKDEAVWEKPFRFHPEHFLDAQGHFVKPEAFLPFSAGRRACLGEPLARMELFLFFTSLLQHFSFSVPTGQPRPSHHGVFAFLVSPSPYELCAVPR

Question: What does the source list for “trans-(1R,9S)-8-methylene-4,11,11trimethylbicyclo[7.2.0]undec-4-ene [BCP]”?
Answer: pre-pulse inhibition in saline-treated mice [1, 8]: no substantial effect on saline-treated mice; response to pre-pulse tones in saline-treated mice [1, 8]: no effect on saline-treated mice; response to pre-pulse tones [1, 9]: significantly reversed the effect of PCP on response to pre-pulse tones; also recorded: reversed the effect of PCP on the response to tone; startle response at the end of the PPI test [1, 9]: did not affect the response to startle at the end of the PPI test; startle response, females [1, 9]: significantly reversed the effect of PCP on startle response in females; startle response, males [1, 9]: no difference in the response to the startle stimuli between groups; pre-pulse inhibition (% PPI) ([1]; PND 68, postnatal PCP, BCP 5 mg/kg injected twice a week PND 43-61): significantly reversed the effect of PCP on pre-pulse inhibition; also recorded: reversed the effect of PCP on PPI; % pre-pulse inhibition (PPI) [1, 10]: reversed the effect of PCP on the % pre-pulse inhibition (PPI); also recorded: reversed the effect of PCP on attention at PND106 (PPI test); response to the startle stimuli (120 dB) [1, 10]: no difference in the response to the startle stimuli (120 dB) between groups; response to tones [1, 10]: reversed the effect of PCP on the response to tones; response to startle stimuli ([1]; age 8 weeks, males and females, postnatal BCP 10 mg/kg 1 h after PCP): not significantly different between groups; % prepulse inhibition, females [1, 11]: No significant difference; % prepulse inhibition, males [1, 11]: reversed this effect; also recorded: significantly reversed the effect of PCP on the sensorimotor-gate in males; plus maze open/close or open/(close+open) duration and frequency ([2]; PND 64, postnatal PCP, BCP 5 mg/kg PND 43-61): no effect at age 64; also recorded: did not reverse the effects of PCP in plus maze test; behavior in the open arm of the Elevated Plus Maze ([2]; PND 110, postnatal PCP, BCP 5 mg/kg PND 43-61): significantly reversed the effects of PCP on behavior in the open arm of the Elevated Plus Maze; time spent in closed arm or open arm ([2]; age 13 weeks, females and males, postnatal BCP 10 mg/kg 1 h after PCP): no significant change in the time spent in the closed arm or open arm; time spent in distal end of the opened arm, females [2, 12]: reversed this effect; time spent in distal end of the opened arm, males [2, 12]: reversed this effect; behavior in the close arm of the Elevated Plus Maze ([2]; age 64 days, postnatal PCP, BCP 5 mg/kg PND 43-61): significantly reversed the effects of PCP on behavior in the close arm of the Elevated Plus Maze; frequency of entries to the wheel [3, 13]: reversed the effects of PCP on the frequency of entries to the wheel in the Phenotyper cage both in females and males; time spent in the Hidden Zone [3, 13]: reversed the effects of PCP on the time spend in the Hidden Zone of PhenoTyper cage in females and males; also recorded: reversed the effects of PCP on the time spent in the hidden zone; time spent at the drinking zone ([3]; PND 91, compared with PCP-treated group): appeared to reduce the time spend at the drinking zone; frequency of entries to the Hidden Zone, males ([3]; PND 91, postnatal PCP): reversed the effect of PCP in males; time spent in the food zone ([3]; PND 91, postnatal PCP): did not affect the time spend in the food zone; frequency of entries to the Wheel Zone ([3]; PND 105, postnatal PCP): appeared to reduce the effect of PCP on the frequency of entries to the Wheel Zone; frequency of entries to the hidden zone ([3]; PND 105, postnatal PCP): reversed the effects of PCP on the frequency of entries to the hidden zone; also recorded: reversed the effect of PCP on frequency of entries to hidden zone; time spent at the hidden zone ([3]; PND 105, postnatal PCP): reversed the effects of PCP on the time spend at the hidden zone; also recorded: reversed the effect of PCP on time spent at the hidden zone; time spent in the wheel zone ([3]; PND 105, postnatal PCP): showed a trend to reverse the effect of PCP on the time spend in the wheel; also recorded: not the time spent in the wheel zone; duration of immobility in the forced swim test, male mice [4]: reversed the effect of 5 mg/kg PCP on the duration of immobility of male mice in the forced swim test; also recorded: reversed the effect of PCP on mice in the open field test (29A) and in the forced swim test; social interaction, male mice [5]: reversed the effect of 5 mg/kg PCP on social interaction of male mice in the social interaction test; risperidone-induced inhibition of CYP2D6 in the presence of BCP (CYP2D6; BCP combined with risperidone at a fixed concentration equivalent to IC50, human liver microsomes): significantly reduced the risperidone-induced inhibition of CYP2D6; also recorded: blocked the effect of risperidone and restored the activity of CYP2D6 enzyme; inhibitory effect on CYP2D6 (CYP2D6; human liver microsomes): 0-20 % inhibition; inhibition of CYP2D6 enzymatic activity (CYP2D6; human liver microsomes 0.1 mg/mL, 20 min, 37 C): slightly inhibited CYP2D6; original compound consumed by autoxidation [6]: ~50%; open-field rearing and exploration ([7]; PND 17, male mice, BCP 10 mg/kg 1 h after each PCP 5 mg/kg injection (Cremophor EL:DMSO:saline)): reversed the effects of PCP on rearing and exploration; open-field ambulation and rearing ([7]; PND 17, males, BCP 10 mg/kg 1 h after PCP, DMSO-based carrier): completely reversed the effects of PCP on ambulation; open-field ambulation and rearing, females [7, 14]: reversed a proportion of the effects of PCP on ambulation and rearing behavior of female mice; open-field locomotor activity, males [7, 14]: appeared to be less sensitive to the treatment of PCP or PCP+BCP; open-field rearing and exploration [7, 14]: reversed the effects of PCP on rearing and exploration; open-field locomotor activity (ambulation), males [7, 15]: reduced locomotor activity; also recorded: significantly reversed the effect of PCP in males; open-field rearing and exploration, females [7, 15]: no differences in rearing and exploration behaviors were seen between the different groups; open-field rearing, males [7, 15]: significantly reduced rearing behavior as compared to vehicle and PCP-treated groups; open-field rearing ([7]; PND 63, females and males, postnatal PCP, BCP 5 mg/kg injected twice a week PND 43-61): reversed the effect of PCP on rearing in both females and males; open-field ambulation ([7]; PND 63, male and female, postnatal PCP, BCP 5 mg/kg injected twice a week PND 43-61): significantly reversed the effect of postnatal treatment of PCP on ambulation in male and female mice at PND 63; open-field exploration compared with saline-treated mice ([7]; PND 63, BCP 5 mg/kg injected twice a week PND 43-61): significantly inhibited the exploration of mice compared with saline-treated mice; open-field exploratory behavior, females ([7]; PND 104 (last BCP treatment PND 61), postnatal PCP, BCP 5 mg/kg PND 43-61): relapse in exploratory behavior was evident; self-grooming (total, without stimuli) ([7]; PND 104, females or males, postnatal PCP, BCP 5 mg/kg PND 43-61): did not reverse the effect of PCP on self-grooming; also recorded: did not reverse the effect of PCT on grooming at PND104; open-field rearing (and exploration), males ([7]; PND 104, postnatal PCP, BCP 5 mg/kg PND 43-61): still significantly higher than that of PCP-treated mice with no BCP treatment; also recorded: improved exploration and rearing behaviors of male PCP treated mice at PND 104; activity in the open field test, female mice ([7]; postnatal PCP 5 mg/kg, BCP 10 mg/kg in canola oil by gavage twice a week, PND 43-62): reversed the effect of 5 mg/kg PCP on activity of female mice in the open field test
